# ChEMBL document CHEMBL3580659, “One-pot multicomponent synthesis of indole incorporated thiazolylcoumarins and their antibacterial, anticancer and DNA cleavage studies” (2015)
# Key:
# Type in all cases: functional
# A498 [1] = assay: Cytotoxicity against human A498 cells assessed as cell growth level at 100 uM after 48 hrs by sulforhodamine B assay
# SN12C = assay: Cytotoxicity against human SN12C cells assessed as cell growth level at 100 uM after 48 hrs by sulforhodamine B assay
# HCT-116 = assay: Cytotoxicity against human HCT116 cells assessed as cell growth level at 10 nM after 48 hrs by sulforhodamine B assay
# OVCAR-4 = assay: Cytotoxicity against human OVCAR4 cells assessed as cell growth level at 10 nM after 48 hrs by sulforhodamine B assay
# OVCAR-5 = assay: Cytotoxicity against human OVCAR5 cells assessed as cell growth level at 10 nM after 48 hrs by sulforhodamine B assay
# 786-0 [2] = assay: Cytotoxicity against human 786-0 cells assessed as cell growth level at 10 nM after 48 hrs by sulforhodamine B assay
# ACHN = assay: Cytotoxicity against human ACHN cells assessed as cell growth level at 10 nM after 48 hrs by sulforhodamine B assay
# RXF 393 [3] = assay: Cytotoxicity against human RXF393 cells assessed as cell growth level at 10 nM after 48 hrs by sulforhodamine B assay
# T47D [4] = assay: Cytotoxicity against human T47D cells assessed as cell growth level at 10 nM after 48 hrs by sulforhodamine B assay
# MDA-MB-468 [5] = assay: Cytotoxicity against human MDA-MB-468 cells assessed as cell growth level at 10 nM after 48 hrs by sulforhodamine B assay
# K562 [6] = assay: Cytotoxicity against human K562 cells assessed as cell growth level at 100 nM after 48 hrs by sulforhodamine B assay
# NCI-H322M = assay: Cytotoxicity against human NCI-H322M cells assessed as cell growth level at 100 nM after 48 hrs by sulforhodamine B assay
# NCI-H522 = assay: Cytotoxicity against human NCI-H522 cells assessed as cell growth level at 100 nM after 48 hrs by sulforhodamine B assay
# HT-29 = assay: Cytotoxicity against human HT-29 cells assessed as cell growth level at 100 nM after 48 hrs by sulforhodamine B assay
# SNB-19 = assay: Cytotoxicity against human SNB19 cells assessed as cell growth level at 100 nM after 48 hrs by sulforhodamine B assay
# MDA-MB-435 = assay: Cytotoxicity against human MDA-MB-435 cells assessed as cell growth level at 100 nM after 48 hrs by sulforhodamine B assay
# UACC-62 = assay: Cytotoxicity against human UACC62 cells assessed as cell growth level at 100 nM after 48 hrs by sulforhodamine B assay
# NCI-H226 = assay: Cytotoxicity against human NCI-H226 cells assessed as cell growth level at 10 uM after 48 hrs by sulforhodamine B assay
# T47D [7] = assay: Cytotoxicity against human T47D cells assessed as cell growth level at 100 nM after 48 hrs by sulforhodamine B assay
# HOP-62 = assay: Cytotoxicity against human HOP62 cells assessed as cell growth level at 1 uM after 48 hrs by sulforhodamine B assay
# HOP-92 = assay: Cytotoxicity against human HOP92 cells assessed as cell growth level at 1 uM after 48 hrs by sulforhodamine B assay
# SK-MEL-2 = assay: Cytotoxicity against human SK-MEL-2 cells assessed as cell growth level at 10 uM after 48 hrs by sulforhodamine B assay
# SK-MEL-28 = assay: Cytotoxicity against human SK-MEL-28 cells assessed as cell growth level at 10 uM after 48 hrs by sulforhodamine B assay
# SF-268 = assay: Cytotoxicity against human SF268 cells assessed as cell growth level at 1 uM after 48 hrs by sulforhodamine B assay
# IGROV-1 = assay: Cytotoxicity against human IGROV1 cells assessed as cell growth level at 1 uM after 48 hrs by sulforhodamine B assay
# A498 [8] = assay: Cytotoxicity against human A498 cells assessed as cell growth level at 1 uM after 48 hrs by sulforhodamine B assay
# RXF 393 [9] = assay: Cytotoxicity against human RXF393 cells assessed as cell growth level at 1 uM after 48 hrs by sulforhodamine B assay
# UO-31 = assay: Cytotoxicity against human UO31 cells assessed as cell growth level at 1 uM after 48 hrs by sulforhodamine B assay
# K562 [10] = assay: Cytotoxicity against human K562 cells assessed as cell growth level at 100 uM after 48 hrs by sulforhodamine B assay
# MOLT-4 = assay: Cytotoxicity against human MOLT4 cells assessed as cell growth level at 100 uM after 48 hrs by sulforhodamine B assay
# SR = assay: Cytotoxicity against human SR cells assessed as cell growth level at 100 uM after 48 hrs by sulforhodamine B assay
# A549 = assay: Cytotoxicity against human A549/ATCC cells after 48 hrs by sulforhodamine B assay; settings: A549, 48 h
# HCT-15 = assay: Cytotoxicity against human HCT15 cells after 48 hrs by sulforhodamine B assay; settings: HCT-15, 48 h
# SNB-75 = assay: Cytotoxicity against human SNB75 cells after 48 hrs by sulforhodamine B assay; settings: SNB-75, 48 h
# KM12 = assay: Cytotoxicity against human KM12 cells assessed as cell growth level at 100 uM after 48 hrs by sulforhodamine B assay
# SF-295 = assay: Cytotoxicity against human SF295 cells assessed as cell growth level at 100 uM after 48 hrs by sulforhodamine B assay
# Malme-3M = assay: Cytotoxicity against human MALME-3M cells after 48 hrs by sulforhodamine B assay
# 786-0 [11] = assay: Cytotoxicity against human 786-0 cells after 48 hrs by sulforhodamine B assay; settings: 786-0, 48 h
# MDA-MB-468 [12] = assay: Cytotoxicity against human MDA-MB-468 cells after 48 hrs by sulforhodamine B assay; settings: MDA-MB-468, 48 h
# [13] = read-out: LC50 (the source's name)
# [14] = read-out: pLC50 (the source's name) (converted)
smiles,measurement,setting,value
O=c1oc2ccccc2cc1-c1csc(N/N=C/c2c[nH]c3ccccc23)n1,Activity,A498 [1],-53%
same,Activity,SN12C,-51%
same,Activity,HCT-116,92%
same,Activity,OVCAR-4,90%
same,Activity,OVCAR-5,102%
same,Activity,786-0 [2],86%
same,Activity,ACHN,99%
same,Activity,RXF 393 [3],98%
same,Activity,T47D [4],101%
same,Activity,MDA-MB-468 [5],94%
same,Activity,K562 [6],110%
same,Activity,NCI-H322M,102%
same,Activity,NCI-H522,107%
same,Activity,HT-29,105%
same,Activity,SNB-19,89%
same,Activity,MDA-MB-435,99%
same,Activity,UACC-62,96%
same,Activity,NCI-H226,42.82%
same,Activity,T47D [7],96%
same,Activity,HOP-62,103%
same,Activity,HOP-92,87%
same,Activity,SK-MEL-2,-9.49%
same,Activity,SK-MEL-28,54.83%
same,Activity,SF-268,86%
same,Activity,IGROV-1,58%
same,Activity,A498 [8],61%
same,Activity,RXF 393 [9],53%
same,Activity,UO-31,46%
same,Activity,K562 [10],-38%
same,Activity,MOLT-4,-40%
same,Activity,SR,-46%
same,GI50,A549; read-out: GI50,1.54 µM
same,CC50,A549; [13],> 100 µM
same,TGI,A549; read-out: TGI,5.3 µM
same,GI50,A549; read-out: pGI50 (converted),1.55 µM
same,CC50,A549; [14],> 100 µM
same,TGI,A549; read-out: pTGI,5.25 µM
same,GI50,HCT-15; read-out: GI50,1.61 µM
same,CC50,HCT-15; [13],7.46 µM
same,TGI,HCT-15; read-out: TGI,3.47 µM
same,GI50,HCT-15; read-out: pGI50 (converted),1.62 µM
same,CC50,HCT-15; [14],7.41 µM
same,TGI,HCT-15; read-out: pTGI (converted),3.47 µM
same,GI50,SNB-75; read-out: GI50,2 µM
same,CC50,SNB-75; [13],> 100 µM
same,TGI,SNB-75; read-out: TGI,8.92 µM
same,GI50,SNB-75; read-out: pGI50 (converted),2 µM
same,CC50,SNB-75; [14],> 100 µM
same,TGI,SNB-75; read-out: pTGI (converted),8.91 µM
same,Activity,KM12,-52%
same,Activity,SF-295,-71%
same,GI50,Malme-3M; read-out: GI50,1.59 µM
same,CC50,Malme-3M; [13],> 100 µM
same,TGI,Malme-3M; read-out: TGI,4.17 µM
same,GI50,Malme-3M; read-out: pGI50 (converted),1.58 µM
same,CC50,Malme-3M; [14],> 100 µM
same,TGI,Malme-3M; read-out: pTGI (converted),4.17 µM
same,GI50,786-0 [11]; read-out: GI50,1.35 µM
same,CC50,786-0 [11]; [13],> 100 µM
same,TGI,786-0 [11]; read-out: TGI,4.09 µM
same,GI50,786-0 [11]; read-out: pGI50 (converted),1.35 µM
same,CC50,786-0 [11]; [14],> 100 µM
same,TGI,786-0 [11]; read-out: pTGI (converted),4.07 µM
same,GI50,MDA-MB-468 [12]; read-out: GI50,1.52 µM
same,CC50,MDA-MB-468 [12]; [13],> 100 µM
same,TGI,MDA-MB-468 [12]; read-out: TGI,3.92 µM
same,GI50,MDA-MB-468 [12]; read-out: pGI50 (converted),1.51 µM
same,CC50,MDA-MB-468 [12]; [14],> 100 µM
same,TGI,MDA-MB-468 [12]; read-out: pTGI (converted),3.89 µM
